Columns and labels:
[1] = target: Protein kinase C eta type (Homo sapiens) (UniProt P24723); assay: Inhibition of PKCeta (unknown origin) at 100 nM
[2] = target: Vascular endothelial growth factor receptor 1 (Homo sapiens) (UniProt P17948); assay: Inhibition of FLT1 (unknown origin) at 100 nM
[3] = system: Mast/stem cell growth factor receptor Kit (Homo sapiens), P10721 [V654A]; assay: Inhibition of KIT V654A mutant (unknown origin) at 100 nM
[4] = target: Serine/threonine-protein kinase N1 (Homo sapiens) (UniProt Q16512); assay: Inhibition of PRK1 (unknown origin) at 100 nM
[5] = target: Sphingosine kinase 1 (Homo sapiens) (UniProt Q9NYA1); assay: Inhibition of SPHK1 (unknown origin) at 100 nM
Sphingosine kinase 1 (Homo sapiens), sequence (Q9NYA1 whole entry): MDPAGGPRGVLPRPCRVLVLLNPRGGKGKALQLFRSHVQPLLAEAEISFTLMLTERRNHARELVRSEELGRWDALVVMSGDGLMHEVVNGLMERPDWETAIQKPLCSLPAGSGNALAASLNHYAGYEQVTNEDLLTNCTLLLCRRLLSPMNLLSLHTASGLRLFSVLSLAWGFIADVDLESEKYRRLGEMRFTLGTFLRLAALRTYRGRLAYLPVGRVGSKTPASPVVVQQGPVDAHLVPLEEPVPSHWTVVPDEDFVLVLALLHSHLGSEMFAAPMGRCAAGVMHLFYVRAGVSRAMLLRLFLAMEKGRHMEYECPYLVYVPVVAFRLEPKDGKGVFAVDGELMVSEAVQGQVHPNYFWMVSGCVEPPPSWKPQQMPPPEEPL

[6] = target: Ribosomal protein S6 kinase alpha-5 (Homo sapiens) (UniProt O75582); assay: Inhibition of MSK1 (unknown origin) at 100 nM
[7] = target: NT-3 growth factor receptor (Homo sapiens) (UniProt Q16288); assay: Inhibition of TRKC (unknown origin) at 100 nM
NT-3 growth factor receptor (Homo sapiens), sequence (Q16288 32-839 limits assumed): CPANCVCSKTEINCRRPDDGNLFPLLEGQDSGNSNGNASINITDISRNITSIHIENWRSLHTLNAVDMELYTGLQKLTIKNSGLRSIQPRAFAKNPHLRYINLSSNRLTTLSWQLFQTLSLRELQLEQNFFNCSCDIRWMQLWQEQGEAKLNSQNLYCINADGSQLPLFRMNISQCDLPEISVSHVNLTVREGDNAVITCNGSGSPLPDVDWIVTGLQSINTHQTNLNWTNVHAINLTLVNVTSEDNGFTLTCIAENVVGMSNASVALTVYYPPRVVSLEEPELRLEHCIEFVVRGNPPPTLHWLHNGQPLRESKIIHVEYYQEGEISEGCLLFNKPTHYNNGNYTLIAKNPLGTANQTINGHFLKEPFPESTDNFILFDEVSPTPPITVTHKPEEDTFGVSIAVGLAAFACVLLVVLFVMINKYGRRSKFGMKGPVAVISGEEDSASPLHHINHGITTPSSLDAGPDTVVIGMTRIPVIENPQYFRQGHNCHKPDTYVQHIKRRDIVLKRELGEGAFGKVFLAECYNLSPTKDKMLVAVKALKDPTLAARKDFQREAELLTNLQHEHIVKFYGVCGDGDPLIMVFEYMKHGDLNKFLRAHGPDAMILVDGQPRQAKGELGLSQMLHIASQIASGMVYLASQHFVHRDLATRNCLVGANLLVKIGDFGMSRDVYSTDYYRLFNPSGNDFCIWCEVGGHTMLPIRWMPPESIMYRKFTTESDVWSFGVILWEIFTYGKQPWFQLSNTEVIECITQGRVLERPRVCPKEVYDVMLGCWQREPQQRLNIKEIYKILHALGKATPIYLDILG

[8] = target: Mitogen-activated protein kinase kinase kinase 20 (Homo sapiens) (UniProt Q9NYL2); assay: Inhibition of ZAK (unknown origin) at 100 nM
[9] = target: Serine/threonine-protein kinase 33 (Homo sapiens) (UniProt Q9BYT3); assay: Inhibition of STK33 (unknown origin) at 100 nM
[10] = target: Protein kinase C gamma type (Homo sapiens) (UniProt P05129); assay: Inhibition of PKCgamma (unknown origin) at 100 nM
[11] = target: Tyrosine-protein kinase FRK (Homo sapiens) (UniProt P42685); assay: Inhibition of FRK (unknown origin) at 100 nM
[12] = target: BDNF/NT-3 growth factors receptor (Homo sapiens) (UniProt Q16620); assay: Inhibition of TRKB (unknown origin) at 100 nM
[13] = system: Leucine-rich repeat serine/threonine-protein kinase 2 (Homo sapiens), Q5S007 [G2019S]; assay: Inhibition of LRRK2 G2019S mutant (unknown origin) at 100 nM
Leucine-rich repeat serine/threonine-protein kinase 2 (Homo sapiens), Q5S007 [G2019S], sequence (Q5S007 whole entry G2019S): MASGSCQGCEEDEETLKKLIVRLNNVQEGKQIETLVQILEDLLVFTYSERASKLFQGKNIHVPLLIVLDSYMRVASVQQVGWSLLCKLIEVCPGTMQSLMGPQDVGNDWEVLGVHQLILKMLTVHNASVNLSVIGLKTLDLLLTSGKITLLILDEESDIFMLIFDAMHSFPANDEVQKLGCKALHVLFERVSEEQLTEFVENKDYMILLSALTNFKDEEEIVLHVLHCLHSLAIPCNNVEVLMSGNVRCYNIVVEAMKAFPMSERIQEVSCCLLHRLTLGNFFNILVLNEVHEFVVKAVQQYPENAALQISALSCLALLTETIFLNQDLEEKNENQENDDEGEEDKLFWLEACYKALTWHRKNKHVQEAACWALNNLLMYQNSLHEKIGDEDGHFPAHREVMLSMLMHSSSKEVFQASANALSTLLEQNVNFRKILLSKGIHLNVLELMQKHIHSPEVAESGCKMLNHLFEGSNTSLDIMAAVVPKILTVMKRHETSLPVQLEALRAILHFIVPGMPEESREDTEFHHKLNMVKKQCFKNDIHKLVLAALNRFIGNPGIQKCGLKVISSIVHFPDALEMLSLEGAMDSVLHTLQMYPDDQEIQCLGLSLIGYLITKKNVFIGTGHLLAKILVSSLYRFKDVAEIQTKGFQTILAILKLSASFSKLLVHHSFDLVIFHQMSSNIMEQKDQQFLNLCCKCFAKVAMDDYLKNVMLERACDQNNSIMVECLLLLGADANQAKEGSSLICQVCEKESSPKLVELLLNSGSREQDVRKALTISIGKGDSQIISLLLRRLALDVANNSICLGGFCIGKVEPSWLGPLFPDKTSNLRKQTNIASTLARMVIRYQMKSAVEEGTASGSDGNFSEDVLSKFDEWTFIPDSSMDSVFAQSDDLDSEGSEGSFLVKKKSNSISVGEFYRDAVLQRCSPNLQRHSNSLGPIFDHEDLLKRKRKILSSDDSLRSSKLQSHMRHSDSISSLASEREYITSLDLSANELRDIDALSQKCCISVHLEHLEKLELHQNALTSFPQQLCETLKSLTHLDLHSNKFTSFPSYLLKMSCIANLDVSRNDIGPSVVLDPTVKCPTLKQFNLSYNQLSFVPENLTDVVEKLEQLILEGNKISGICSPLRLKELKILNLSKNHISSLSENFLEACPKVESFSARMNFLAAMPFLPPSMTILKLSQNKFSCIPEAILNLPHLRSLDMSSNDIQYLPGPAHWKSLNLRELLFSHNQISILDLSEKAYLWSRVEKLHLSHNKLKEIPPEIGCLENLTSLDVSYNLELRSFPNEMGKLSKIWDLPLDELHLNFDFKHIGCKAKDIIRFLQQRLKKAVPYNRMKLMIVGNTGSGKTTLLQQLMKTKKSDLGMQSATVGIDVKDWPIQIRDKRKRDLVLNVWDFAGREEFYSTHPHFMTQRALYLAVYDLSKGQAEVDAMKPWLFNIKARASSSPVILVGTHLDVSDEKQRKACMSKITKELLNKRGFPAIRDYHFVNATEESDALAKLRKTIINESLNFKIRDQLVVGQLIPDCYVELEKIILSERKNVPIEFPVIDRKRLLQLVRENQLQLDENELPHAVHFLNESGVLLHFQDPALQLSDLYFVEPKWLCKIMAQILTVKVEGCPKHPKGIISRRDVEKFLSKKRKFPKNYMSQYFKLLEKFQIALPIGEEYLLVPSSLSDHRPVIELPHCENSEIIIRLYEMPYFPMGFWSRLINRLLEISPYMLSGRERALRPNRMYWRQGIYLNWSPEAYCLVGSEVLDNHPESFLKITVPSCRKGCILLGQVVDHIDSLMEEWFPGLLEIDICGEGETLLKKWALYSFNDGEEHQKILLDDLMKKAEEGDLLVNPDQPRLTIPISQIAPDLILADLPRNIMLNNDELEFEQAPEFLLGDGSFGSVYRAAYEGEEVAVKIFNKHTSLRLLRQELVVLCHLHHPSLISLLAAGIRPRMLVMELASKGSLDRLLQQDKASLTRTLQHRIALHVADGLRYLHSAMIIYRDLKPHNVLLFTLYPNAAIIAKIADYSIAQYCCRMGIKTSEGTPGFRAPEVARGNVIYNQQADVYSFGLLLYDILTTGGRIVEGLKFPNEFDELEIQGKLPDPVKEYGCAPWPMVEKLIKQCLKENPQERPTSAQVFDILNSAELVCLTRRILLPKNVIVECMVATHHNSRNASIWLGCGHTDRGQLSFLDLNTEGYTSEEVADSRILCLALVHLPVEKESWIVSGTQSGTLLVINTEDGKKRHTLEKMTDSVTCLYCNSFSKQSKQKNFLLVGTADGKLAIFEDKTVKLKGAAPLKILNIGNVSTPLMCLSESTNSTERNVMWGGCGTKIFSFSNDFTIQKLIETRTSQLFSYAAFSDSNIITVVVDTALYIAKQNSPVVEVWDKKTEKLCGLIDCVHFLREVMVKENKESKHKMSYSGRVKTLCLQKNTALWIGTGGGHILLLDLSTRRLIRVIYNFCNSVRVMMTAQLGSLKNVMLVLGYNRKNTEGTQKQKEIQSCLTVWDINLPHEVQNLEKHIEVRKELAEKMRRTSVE

[14] = target: G protein-coupled receptor kinase 3 (Homo sapiens) (UniProt P35626); assay: Inhibition of GRK3 (unknown origin) at 100 nM
G protein-coupled receptor kinase 3 (Homo sapiens), sequence (P35626 whole entry): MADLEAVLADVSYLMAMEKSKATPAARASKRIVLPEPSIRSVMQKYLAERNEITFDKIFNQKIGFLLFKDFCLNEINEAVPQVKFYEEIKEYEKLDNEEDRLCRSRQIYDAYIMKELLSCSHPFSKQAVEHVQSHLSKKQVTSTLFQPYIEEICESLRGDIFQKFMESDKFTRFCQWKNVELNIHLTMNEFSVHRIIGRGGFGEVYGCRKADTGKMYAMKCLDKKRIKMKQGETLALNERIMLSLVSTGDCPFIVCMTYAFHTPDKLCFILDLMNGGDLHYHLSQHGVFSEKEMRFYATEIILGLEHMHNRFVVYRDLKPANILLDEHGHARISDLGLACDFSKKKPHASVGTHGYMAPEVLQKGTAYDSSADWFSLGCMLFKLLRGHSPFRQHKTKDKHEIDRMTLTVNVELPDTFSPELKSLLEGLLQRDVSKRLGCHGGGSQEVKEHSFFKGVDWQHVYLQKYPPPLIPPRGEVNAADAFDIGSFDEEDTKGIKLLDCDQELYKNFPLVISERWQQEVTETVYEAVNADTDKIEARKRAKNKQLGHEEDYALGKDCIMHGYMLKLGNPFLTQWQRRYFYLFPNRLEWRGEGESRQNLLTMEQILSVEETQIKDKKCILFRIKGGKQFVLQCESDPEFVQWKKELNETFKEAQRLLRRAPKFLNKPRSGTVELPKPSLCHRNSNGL

[15] = target: Macrophage-stimulating protein receptor (Homo sapiens) (UniProt Q04912); assay: Inhibition of RON (unknown origin) at 100 nM

Protein kinase C eta type (Homo sapiens), sequence (P24723 whole entry): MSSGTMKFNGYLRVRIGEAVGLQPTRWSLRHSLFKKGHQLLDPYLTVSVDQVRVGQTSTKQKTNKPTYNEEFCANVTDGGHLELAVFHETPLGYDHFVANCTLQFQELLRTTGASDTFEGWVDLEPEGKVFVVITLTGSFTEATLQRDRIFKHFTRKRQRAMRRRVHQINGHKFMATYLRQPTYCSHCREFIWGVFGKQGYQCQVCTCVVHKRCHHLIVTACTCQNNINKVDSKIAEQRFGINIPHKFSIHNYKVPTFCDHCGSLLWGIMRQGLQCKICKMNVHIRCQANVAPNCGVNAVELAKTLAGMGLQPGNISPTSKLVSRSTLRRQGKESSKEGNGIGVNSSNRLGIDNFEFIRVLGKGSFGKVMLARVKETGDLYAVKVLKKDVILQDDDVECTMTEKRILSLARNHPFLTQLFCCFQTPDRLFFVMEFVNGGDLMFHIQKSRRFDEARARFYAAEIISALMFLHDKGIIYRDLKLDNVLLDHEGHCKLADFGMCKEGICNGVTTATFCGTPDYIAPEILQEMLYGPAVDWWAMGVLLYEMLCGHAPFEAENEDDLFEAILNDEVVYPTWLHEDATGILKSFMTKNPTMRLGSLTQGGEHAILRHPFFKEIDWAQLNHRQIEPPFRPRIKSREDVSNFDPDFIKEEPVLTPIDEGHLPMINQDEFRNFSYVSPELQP

With CC1(C)OCc2c(Nc3n[nH]c4ccccc34)nc(-c3cn[nH]c3)nc21 the inhibition [1] was 15.5%, the inhibition [2] was 71.8% and the inhibition [3] was 1.1%. It also gave an inhibition [4] of 3.7%, an inhibition [5] of 0% and an inhibition [6] of 11.5%. It also gave an inhibition [7] of 14.5%, an inhibition [8] of 11.4% and an inhibition [9] of 4.2%. For the same compound, the inhibition [10] was 16.4%, the inhibition [11] was 85.6% and the inhibition [12] was -1.4%. It also gave an inhibition [13] of 16%, an inhibition [14] of -3.6% and an inhibition [15] of 3.8%.
